Reference: ChEMBL document CHEMBL3769336, “Discovery of a Chemical Tool Inhibitor Targeting the Bromodomains of TRIM24 and BRPF” (J Med Chem, 2016)
pIC50: −log10 of the molar value.

Key:
[1] = target: T1, Bromodomain-containing protein 1 (Homo sapiens, UniProt O95696); assay: Inhibition of BRPF2 BRD1 (unknown origin) by Alpha Screen assay
T1 sequence (O95696 whole entry): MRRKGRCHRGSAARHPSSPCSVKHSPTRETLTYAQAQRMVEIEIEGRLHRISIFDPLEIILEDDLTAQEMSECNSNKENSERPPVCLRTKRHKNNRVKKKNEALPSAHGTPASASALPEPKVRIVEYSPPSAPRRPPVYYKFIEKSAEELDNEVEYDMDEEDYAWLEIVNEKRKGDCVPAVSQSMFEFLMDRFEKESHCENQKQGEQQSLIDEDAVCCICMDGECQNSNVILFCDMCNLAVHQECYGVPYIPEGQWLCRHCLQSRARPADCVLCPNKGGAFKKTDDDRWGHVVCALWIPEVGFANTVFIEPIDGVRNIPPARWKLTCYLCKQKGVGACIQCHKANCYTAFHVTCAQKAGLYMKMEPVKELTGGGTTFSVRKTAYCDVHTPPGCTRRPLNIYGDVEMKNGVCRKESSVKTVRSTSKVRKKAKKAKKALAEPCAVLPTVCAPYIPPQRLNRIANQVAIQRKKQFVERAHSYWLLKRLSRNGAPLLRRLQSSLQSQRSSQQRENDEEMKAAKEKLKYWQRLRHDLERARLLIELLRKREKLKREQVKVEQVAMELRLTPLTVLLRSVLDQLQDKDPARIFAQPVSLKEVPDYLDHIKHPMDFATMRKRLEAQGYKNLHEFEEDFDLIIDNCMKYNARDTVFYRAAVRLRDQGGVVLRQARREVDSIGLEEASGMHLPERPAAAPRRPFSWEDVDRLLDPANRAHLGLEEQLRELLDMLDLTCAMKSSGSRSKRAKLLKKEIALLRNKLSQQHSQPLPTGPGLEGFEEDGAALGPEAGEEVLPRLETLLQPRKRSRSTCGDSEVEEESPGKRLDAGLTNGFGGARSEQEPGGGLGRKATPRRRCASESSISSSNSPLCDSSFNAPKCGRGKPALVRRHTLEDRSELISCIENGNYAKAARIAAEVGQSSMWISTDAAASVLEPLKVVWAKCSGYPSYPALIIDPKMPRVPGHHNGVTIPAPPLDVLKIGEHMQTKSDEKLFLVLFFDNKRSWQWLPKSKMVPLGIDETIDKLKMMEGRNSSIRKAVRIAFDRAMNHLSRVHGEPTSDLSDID

[2] = target: T2, Transcription intermediary factor 1-alpha (Homo sapiens, UniProt O15164); assay: Inhibition of N-terminal His6-SUMO-1-tagged recombinant human TRIM24 bromodomain expressed in Escherichia coli BL21(DE3)-R3-pRARE2 cells by Alpha Screen assay
T2 sequence (O15164 whole entry): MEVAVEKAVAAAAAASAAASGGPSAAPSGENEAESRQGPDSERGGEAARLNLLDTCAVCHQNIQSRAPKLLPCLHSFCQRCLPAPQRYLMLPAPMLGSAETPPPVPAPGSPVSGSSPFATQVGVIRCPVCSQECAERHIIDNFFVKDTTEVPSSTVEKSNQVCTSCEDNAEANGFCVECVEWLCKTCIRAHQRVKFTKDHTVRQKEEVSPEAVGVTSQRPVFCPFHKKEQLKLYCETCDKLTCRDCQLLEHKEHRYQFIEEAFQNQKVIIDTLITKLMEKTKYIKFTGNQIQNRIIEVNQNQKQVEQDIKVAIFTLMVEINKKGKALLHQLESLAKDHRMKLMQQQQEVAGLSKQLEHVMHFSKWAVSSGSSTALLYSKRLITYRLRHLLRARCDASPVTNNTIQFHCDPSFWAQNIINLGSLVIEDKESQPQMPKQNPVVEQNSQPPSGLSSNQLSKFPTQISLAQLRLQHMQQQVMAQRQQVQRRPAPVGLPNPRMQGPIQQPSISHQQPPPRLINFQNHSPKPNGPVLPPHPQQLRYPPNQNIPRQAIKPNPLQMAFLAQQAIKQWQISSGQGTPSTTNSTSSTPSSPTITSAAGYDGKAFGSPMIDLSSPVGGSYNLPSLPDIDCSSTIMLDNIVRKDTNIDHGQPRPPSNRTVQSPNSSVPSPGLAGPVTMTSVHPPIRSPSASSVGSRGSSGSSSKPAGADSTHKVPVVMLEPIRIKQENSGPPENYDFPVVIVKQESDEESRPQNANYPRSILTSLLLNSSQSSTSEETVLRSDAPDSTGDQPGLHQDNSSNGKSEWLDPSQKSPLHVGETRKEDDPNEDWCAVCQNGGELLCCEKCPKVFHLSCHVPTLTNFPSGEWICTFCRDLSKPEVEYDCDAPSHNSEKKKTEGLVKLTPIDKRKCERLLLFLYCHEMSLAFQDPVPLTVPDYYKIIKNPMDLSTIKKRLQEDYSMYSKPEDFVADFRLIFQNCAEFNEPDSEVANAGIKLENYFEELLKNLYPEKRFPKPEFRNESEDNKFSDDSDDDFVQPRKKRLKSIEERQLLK

Peregrin = target: T3, Peregrin (Homo sapiens, UniProt P55201); assay: Inhibition of BRPF1B (unknown origin) by Alpha Screen assay
T3 sequence (P55201 whole entry): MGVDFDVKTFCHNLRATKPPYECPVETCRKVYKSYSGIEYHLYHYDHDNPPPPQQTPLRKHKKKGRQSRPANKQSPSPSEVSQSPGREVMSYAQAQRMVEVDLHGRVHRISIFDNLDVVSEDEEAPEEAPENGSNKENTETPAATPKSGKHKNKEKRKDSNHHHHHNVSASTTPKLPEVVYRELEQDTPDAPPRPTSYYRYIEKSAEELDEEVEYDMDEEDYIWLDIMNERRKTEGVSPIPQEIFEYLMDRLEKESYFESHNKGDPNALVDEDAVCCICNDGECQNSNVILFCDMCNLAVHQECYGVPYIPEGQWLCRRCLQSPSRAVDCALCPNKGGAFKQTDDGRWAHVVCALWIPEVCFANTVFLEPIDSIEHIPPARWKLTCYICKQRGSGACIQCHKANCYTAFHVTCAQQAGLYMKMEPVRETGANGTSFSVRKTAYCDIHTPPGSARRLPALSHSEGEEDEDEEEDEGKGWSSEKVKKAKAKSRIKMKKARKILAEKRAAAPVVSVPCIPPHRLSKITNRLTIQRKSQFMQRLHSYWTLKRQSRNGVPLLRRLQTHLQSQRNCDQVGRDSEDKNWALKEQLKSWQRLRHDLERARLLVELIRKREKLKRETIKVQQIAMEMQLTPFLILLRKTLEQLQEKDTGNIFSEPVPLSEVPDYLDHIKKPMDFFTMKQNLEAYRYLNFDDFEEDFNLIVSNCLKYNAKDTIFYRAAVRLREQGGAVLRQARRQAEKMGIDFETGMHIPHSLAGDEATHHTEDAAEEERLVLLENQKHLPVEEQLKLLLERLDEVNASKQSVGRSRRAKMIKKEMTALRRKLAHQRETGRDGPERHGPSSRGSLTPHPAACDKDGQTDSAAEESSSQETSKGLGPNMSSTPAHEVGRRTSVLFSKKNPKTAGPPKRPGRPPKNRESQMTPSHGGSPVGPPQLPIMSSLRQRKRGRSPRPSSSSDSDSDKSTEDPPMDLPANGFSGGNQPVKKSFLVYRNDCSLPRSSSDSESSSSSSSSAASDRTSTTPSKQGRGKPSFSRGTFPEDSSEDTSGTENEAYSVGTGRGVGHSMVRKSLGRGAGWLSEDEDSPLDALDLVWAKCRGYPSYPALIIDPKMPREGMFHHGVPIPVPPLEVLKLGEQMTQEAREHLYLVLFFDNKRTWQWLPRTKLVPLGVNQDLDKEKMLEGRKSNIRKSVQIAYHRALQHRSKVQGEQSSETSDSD

| SMILES | pIC50 [1] | pIC50 [2] | pIC50 (Peregrin) |
| --- | --- | --- | --- |
| COc1ccc(Oc2cc3c(cc2NS(=O)(=O)c2ccc(C)cc2)n(C)c(=O)n3C)cc1 | < 5.00 | 5.57 | 5.65 |
| Cc1cc(Cl)ccc1S(=O)(=O)Nc1cc2c(cc1Oc1ccccc1)n(C)c(=O)n2C | 5.62 | 5.61 | 5.93 |
| COc1ccc(S(=O)(=O)Nc2cc3c(cc2Oc2ccccc2)n(C)c(=O)n3C)cc1 | 5.88 | 6.13 | 6.47 |
| COc1ccc(Oc2cc3c(cc2NS(=O)(=O)c2ccccc2C)n(C)c(=O)n3C)cc1 | 5.62 | 5.83 | 6.17 |
| Cc1ccccc1S(=O)(=O)Nc1cc2c(cc1Oc1ccccc1)n(C)c(=O)n2C | 5.77 | 5.58 | 6.37 |
| Cn1c(=O)n(C)c2cc(Oc3ccccc3)c(NS(=O)(=O)c3ccc(Cl)cc3)cc21 | 5.46 | 5.81 | 6.57 |
| COc1cccc(S(=O)(=O)Nc2cc3c(cc2Oc2ccccc2)n(C)c(=O)n3C)c1 | 5.70 | 5.62 | 6.37 |
| COc1ccc(S(=O)(=O)Nc2cc3c(cc2Oc2ccccc2)n(C)c(=O)n3C)cc1OC | 5.92 | 6.32 | 6.54 |
| COc1cc2c(cc1NS(=O)(=O)c1ccc(Br)cc1C)n(C)c(=O)n2C | 5.92 |  |  |
| COc1ccc(Oc2cc3c(cc2NS(=O)(=O)c2ccccc2)n(C)c(=O)n3C)cc1 | 5.56 | 6.14 | 6.18 |
| Cc1ccc(F)cc1S(=O)(=O)Nc1cc2c(cc1Oc1ccccc1)n(C)c(=O)n2C | 5.62 | 5.47 | 6.10 |
| COc1ccc(Oc2cc3c(cc2NS(=O)(=O)c2ccc(OC)cc2)n(C)c(=O)n3C)cc1 | 5.45 | 6.11 | 6.18 |
| CCCOc1ccc(S(=O)(=O)Nc2cc3c(cc2Oc2ccc(OC)cc2)n(C)c(=O)n3C)cc1 | < 5.00 | 5.08 | 5.17 |

Now from value to molecule:

| pIC50 [1] | pIC50 [2] | pIC50 (Peregrin) | SMILES |
| --- | --- | --- | --- |
| 5.29 | 5.32 | 5.51 | Cc1ccc(S(=O)(=O)Nc2cc3c(cc2Oc2ccccc2)n(C)c(=O)n3C)cc1C |
| 5.37 | 5.46 | 6.38 | CC(C)c1ccc(S(=O)(=O)Nc2ccc3c(c2)n(C)c(=O)n3C)cc1 |
| 5.57 | < 5.00 | 5.57 | Cn1c(=O)n(C)c2cc(Oc3ccccc3)c(NS(=O)(=O)c3ccc4c(c3)CCCC4)cc21 |
| 5.69 | 5.21 | 6.48 | Cn1c(=O)n(C)c2cc(NS(=O)(=O)c3ccc4c(c3)CCCC4)ccc21 |
| < 5.00 | < 5.00 | 5.85 | COC1(C)Oc2cc(S(=O)(=O)Nc3ccc4c(c3)n(C)c(=O)n4C)ccc2O[C@]1(C)OC (stereo not given in full) |
| 5.43 | 5.57 | 5.98 | Cc1ccc(S(=O)(=O)Nc2cc3c(cc2Oc2ccccc2)n(C)c(=O)n3C)cc1F |
| 5.80 | 5.33 | 6.57 | Cn1c(=O)n(C)c2cc(NS(=O)(=O)c3ccc4c(c3)CCCO4)ccc21 |
| 5.53 | 5.90 | 6.29 | Cc1ccc(S(=O)(=O)Nc2cc3c(cc2Oc2ccccc2)n(C)c(=O)n3C)cc1 |
| 5.61 | 5.43 | 6.51 | Cn1c(=O)n(C)c2cc(NS(=O)(=O)c3ccc4c(c3)CCC(C)(C)O4)ccc21 |
| 5.77 | < 5.00 | 6.54 | Cn1c(=O)n(C)c2cc(NS(=O)(=O)c3ccc4c(c3)CCC4)ccc21 |
| 5.21 | < 5.00 | 6.23 | Cc1ccc(S(=O)(=O)Nc2ccc3c(c2)n(C)c(=O)n3C)cc1F |
